“And” between values parts separate entries of the source, which are not always exact repeats. Identical values can stand only once. Counter-ions that a name gives are not always drawn.
Tests used:
Assay type in all cases: in vivo, rat
[1] = test system: scopolamine-induced amnesia in rats; assay: Passive avoidance test (Gemini Avoidance System), crossover latency, scopolamine-induced amnesia
[2] = test system: liver sulfatase; assay: Liver sulfatase activity after IP dosing of rats; conditions: for % Inhibition of liver sulfatase / Liver Sulfatase Activity: 30 mg/kg IP; for Liver Sulfatase Activity: mean ± SEM, P<0.01 vs control, corn oil control 164.10 ± 2.5
Experimental: (§1) DU-14 was tested for its sulfatase inhibition in rats. 30 mg/kg of the compound was administered to rats IP for 15 days. Sulfatase inhibition was measured by the sulfatase activity in ng E1 S/μg protein/hr in the liver and brain as determined by methods known in the art. The results are presented below in Tables 1 and 2.

[3] = test system: brain sulfatase; assay: Brain sulfatase activity after IP dosing of rats; conditions: 30 mg/kg IP; for Brain Sulfatase Activity: mean ± SEM, P<0.01 vs control, corn oil control 3.24 ± 0.32
Experimental: as §1

SMILES: C[C@]12CC[C@H](OS(=O)(=O)O)CC1=CC[C@@H]1[C@@H]2CC[C@]2(C)C(=O)CC[C@@H]12 [DHEAS, dehydroepiandrosterone sulfate, reference compound]
- maximum crossover latency ([1]; DHEAS 20 mg/Kg IP one hour before acquisition trial, scopolamine 1 mg/Kg IP 30 minutes before): 262.5 ± 84.6 s
- reversal of scopolamine-induced amnesia ([1]; DHEAS 5-70 mg/kg IP one hour before acquisition trial, bell shaped dose response curve): significant (p≤0.05), reversal of scopolamine-induced amnesia

SMILES: CCCCCCCCCCCCCC(=O)NCCc1ccc(OS(N)(=O)=O)cc1 [DU-14]
- % Inhibition of liver sulfatase ([2]; 1 Day): 95.2%
- Liver Sulfatase Activity ([2]; 1 Day): 7.85 ± 0.65 ng E1 S/μg protein/hr
- % Inhibition of liver sulfatase ([2]; 15 Days, 30 mg/kg): 97.6% and ~98%
- Liver Sulfatase Activity ([2]; 15 Days): 4.01 ± 0.23 ng E1 S/μg protein/hr
- liver sulfatase after only 1 day ([2]; 1 day, from about 164): about 8
- crossover latency ([1]; DU-14 alone 30 mg/Kg IP daily for 15 days before acquisition trial, scopolamine): 278.7±88.1
- reversal of scopolamine-induced amnesia ([1]; DU-14 alone daily for 15 days, 30 mg/Kg IP): significant (p≤0.05) reversal of scopolamine-induced amnesia
- crossover latency ([1]; DU-14 alone, single dose 30 mg/Kg IP four hours before acquisition trial): failed to increase crossover latency
- crossover latency, overall conclusion ([1]; summary of Example III): significant increase in crossover latency
- % Inhibition of brain sulfatase ([3]; 1 Day): 14.8%
- Brain Sulfatase Activity ([3]; 1 Day): 2.76 ± 0.27 pg E1 S/μg protein/hr
- Brain Sulfatase Activity ([3]; 15 Days): 0.48 ± 0.10 pg E1 S/μg protein/hr

From patent US5763492A, “Methods for effecting memory enhancement mediated by non-steroidal sulfatase inhibitors” (Duguesne University of the Holy Ghost, priority 1996, dated 1998)
